The experiment concerns MT901. Description: Intratumoral HER3-DC1 in combination with Taxol. The format is in vivo, mouse. To be noted: 30 days after tumor cells were transferred.

Structures are written as SMILES.

Experimental: Taxol alone group received two injections of taxol. DC alone group received DCs once weekly beginning on day 5. DC+Taxol group received two injections of taxol before beginning DC treatment.
MT901, a mouse TNBC cell line, was injected in Balb/c mice and treatment began once tumors were palpable. HER3-DC1 vaccine was injected intratumorally once a week for six weeks. HER3 immune responses were measured in spleens, lymph nodes, and tumors post-vaccination. […] To investigate how the peptides would perform in the context of a therapeutic treatment of an established cancer, 5×10^5 MT901 cells were delivered to a Balb/c mouse s.c. and 5 days later weekly administration of 1×10^6 HER3 pulsed DC cells began and continued for six weeks (FIG. 8). […] To determine if the therapeutic or preventive effect could be improved in combination with an anti-cancer agent, mice were administered HER3-pulsed DC1 in combination with Taxol.

In the case of `CC(=O)O[C@H]1C(=O)[C@@]2(C)[C@H]([C@H](OC(=O)c3ccccc3)[C@]3(O)C[C@H](OC(=O)[C@H](O)[C@@H](NC(=O)c4ccccc4)c4ccccc4)C(C)=C1C3(C)C)[C@]1(OC(C)=O)CO[C@@H]1C[C@@H]2O` [taxol, Paclitaxel], the established tumors entry was “had established tumors”.

Values taken from patent US20220370496A1, “HER3 PULSED DC1 THERAPY” (H. LEE MOFFITT CANCER CENTER AND RESEARCH INSTITUTE, INC., priority 2019, published 2022).
